Article PMC10657444, “Design and evaluation of tadpole-like conformational antimicrobial peptides” (Communications Biology, 2023)
Values after ≈ are worked out from the molar mass of the structure shown. Values joined by “and” are separate entries in the source; they are usually repeats but may differ in a detail not shown here. Identical values can stand only once. Non-standard residues stand in square brackets, D forms with d. Residues, ends and D or L forms follow the SMILES beside them.

Key:
MRSA 3393 = format: cell-based, Staphylococcus aureus; settings: 3393
Text: (§1) Bacteria were cultivated in Luria-Bertani (LB) broth.

MRSA ATCC 43300 = format: cell-based, Staphylococcus aureus; settings: ATCC 43300
Text: as §1

MRSA USA 300 [1] = format: cell-based, Staphylococcus aureus
Text: as §1

sheep red blood cells = assay: Hemolysis assay
MRSA USA 300 [2] = assay: Time-kill assay; format: cell-based, Staphylococcus aureus
Method: (§2) Time-kill assays were done in tubes (in 1.5 mL of LB) and antibiotics at the 1 ×, 2 ×, 4 × and 8 × MIC. Tubes were inoculated (5 × 10^6 CFU/mL) with MRSA USA 300 and K. pneumoniae ATCC 700603 and incubated at 37 °C under shaking. Serial dilutions of the cultures were plated at each desired time point (0, 1, 3, 6, and 24 h), using a multichannel pipette as follows: in line 1 of a 96-well plate, 100 µL of bacterial suspension was added, while 90 µL of 0.9% sterile saline per well was added to the other lines. At selected time points, 100 µL of bacterial suspension was transferred from the time-kill assay plate to the first line. The wells were further diluted 1 in 10 (0.9% saline) for the appropriate number of dilutions and 10 μL of each dilution was spotted in duplicate onto MH agar plates, then incubated overnight at 37°C. The colonies in each spot were counted and used to calculate the number of viable CFU/mL remaining in the original culture by considering the dilution factors.

[3] = test system: K. pneumoniae ATCC 700603; assay: Time-kill assay; format: cell-based, Klebsiella pneumoniae
Method: as §2

[4] = test system: K. pneumoniae ATCC 700603; assay: Membrane permeability, SYTOX Green; format: cell-based, Klebsiella pneumoniae
Method: Fluorescent probe SYTOX^TM Green (Invitrogen/ Life Technologies, S7020) was used to analyze the effect of HT2 and RI-HT2 on membrane permeability of MRSA USA 300 and K. pneumoniae ATCC 700603 as described elsewhere. SYTOX^TM Green is a DNA binding dye that is fluorescent when bound to nucleic acids and only enters cells with compromised plasma membranes. MRSA USA 300 and K. pneumoniae ATCC 700603 were cultured in LB broth to mid log phase at 37 °C and washed with PBS and resuspended (OD595 ≈ 0.1) in the same buffer. SYTOX^TM Green was added into the cell suspension with a final concentration of 5 μM and being kept in dark for 20 min. 98 µL pre-treated cell suspension was transferred into wells of 96-well glass black plates. Then, 2 µL of compound or DMSO were added to initiate the reaction. The final concentrations of HT2 and RI-HT2 were 1 ×, 2 ×, 4 × and 8 × MIC. Fluorescence strength was measured with excitation/emission wavelength of 485/528 nm every 5 min for 60 min.

With `CC[C@@H](C)[C@@H](NC(=O)[C@@H](Cc1ccccc1)NC(=O)[C@@H](Cc1ccccc1)NC(=O)[C@@H](Cc1ccccc1)NC(=O)[C@H](N)Cc1ccccc1)C(=O)N[C@H](CCCNC(=N)N)C(=O)N[C@H](CCCNC(=N)N)C(=O)N[C@H](CC(C)C)C(=O)N[C@H](Cc1ccccc1)C(=O)N[C@H](CCCNC(=N)N)C(N)=O` [RI-HT2] (H-[dF][dF][dF][dF][dI][dR][dR][dL][dF][dR]-NH2; N-terminus assumed) the “MIC Gram+ MRSA 3393” value (MRSA 3393) was 3.13 µM (≈ 4.53 µg/mL), the “MIC Gram+ MRSA ATCC 43300” value (MRSA ATCC 43300) was 3.13 µM (≈ 4.53 µg/mL) and the “MIC Gram+ MRSA USA 300” value (MRSA USA 300 [1]) was 3.13 µM (≈ 4.53 µg/mL). The “OD450, hemolysis (Fig 2b), replicates” value (sheep red blood cells; 6.25 µM) was 0.01607 (2×) and 0.02078 and 0.0162 (2×) and 0.02093, the “OD450, hemolysis (Fig 2b), replicates” value (sheep red blood cells; 12.5 µM) was 0.02038 (2×) and 0.02274 and 0.02054 (2×) and 0.02291 and the “HC10 (concentration inducing 10% hemolysis)” value (sheep red blood cells; red cells of sheep, 1 h) was greater than 100.0 µM. The “viable count, time-kill” value (MRSA USA 300 [2]; 2 × MIC, 0 h) was 17000000 CFU/mL and 16000000 CFU/mL, the “viable count, time-kill” value (MRSA USA 300 [2]; 2 × MIC, 1 h) was 18000 CFU/mL and 21000 CFU/mL and 20000 CFU/mL and the “viable count, time-kill” value (MRSA USA 300 [2]; 2 × MIC, 6 h) was 15000 CFU/mL and 12000 CFU/mL and 14000 CFU/mL. For the same compound, the “time to complete killing” value (MRSA USA 300 [2]; 4 × MIC) was 3 h, the “viable count, time-kill” value (MRSA USA 300 [2]; 4 × MIC, 0 h) was 17000000 CFU/mL and 16000000 CFU/mL and the “viable count, time-kill” value (MRSA USA 300 [2]; 4 × MIC, 1 h) was 1300 CFU/mL and 1200 CFU/mL. The “viable count, time-kill” value (MRSA USA 300 [2]; 4 × MIC, 3 h) was 0 CFU/mL, the “viable count, time-kill” value (MRSA USA 300 [2]; 4 × MIC, 6 h) was 0 CFU/mL and the “viable count, time-kill” value (MRSA USA 300 [2]; 4 × MIC, 24 h) was 0 CFU/mL. For the same compound, the “viable count, time-kill” value (MRSA USA 300 [2]; 8 × MIC, 0 h) was 17000000 CFU/mL and 16000000 CFU/mL, the “viable count, time-kill” value (MRSA USA 300 [2]; 8 × MIC, 1 h) was 100 CFU/mL and 200 CFU/mL and the “viable count, time-kill” value (MRSA USA 300 [2]; 8 × MIC, 3 h) was 0 CFU/mL. The “viable count, time-kill” value (MRSA USA 300 [2]; 8 × MIC, 6 h) was 0 CFU/mL, the “viable count, time-kill” value (MRSA USA 300 [2]; 8 × MIC, 24 h) was 0 CFU/mL and the “viable count, time-kill” value (MRSA USA 300 [2]; MIC, 0 h) was 17000000 CFU/mL and 16000000 CFU/mL. For the same compound, the “viable count, time-kill” value (MRSA USA 300 [2]; MIC, 1 h) was 4500000 CFU/mL and 3500000 CFU/mL and 3700000 CFU/mL, the “viable count, time-kill” value (MRSA USA 300 [2]; MIC, 3 h) was 2300 CFU/mL and 1800 CFU/mL and 2200 CFU/mL and the “viable count, time-kill” value (MRSA USA 300 [2]; MIC, 6 h) was 230000 CFU/mL and 380000 CFU/mL and 310000 CFU/mL. The “viable count, time-kill” value (MRSA USA 300 [2]; MIC, 24 h) was 2000000000 CFU/mL and 3400000000 CFU/mL and 3000000000 CFU/mL, the “viable count, time-kill” value ([3]; 2 × MIC, 0 h) was 12000000 CFU/mL and 16000000 CFU/mL and 14000000 CFU/mL and the “viable count, time-kill” value ([3]; 2 × MIC, 1 h) was 10000 CFU/mL and 17000 CFU/mL and 15000 CFU/mL. The “viable count, time-kill” value ([3]; 2 × MIC, 3 h) was 100 CFU/mL, the “viable count, time-kill” value ([3]; 2 × MIC, 6 h) was 220000 CFU/mL and 310000 CFU/mL and 270000 CFU/mL and the “viable count, time-kill” value ([3]; 2 × MIC, 24 h) was 1000000000000 CFU/mL and 1300000000000 CFU/mL. For the same compound, the “viable count, time-kill” value ([3]; 4 × MIC, 0 h) was 12000000 CFU/mL and 16000000 CFU/mL and 14000000 CFU/mL, the “viable count, time-kill” value ([3]; 4 × MIC, 1 h) was 2500 CFU/mL and 3500 CFU/mL and 3000 CFU/mL and the “viable count, time-kill” value ([3]; 4 × MIC, 3 h) was 0 CFU/mL. For the same compound, the “viable count, time-kill” value ([3]; 4 × MIC, 6 h) was 24000 CFU/mL and 32000 CFU/mL and 30000 CFU/mL, the “viable count, time-kill” value ([3]; 4 × MIC, 24 h) was 3800000 CFU/mL and 3400000 CFU/mL and the “time to complete killing” value ([3]; 8 × MIC) was 3 h. For the same compound, the “viable count, time-kill” value ([3]; 8 × MIC, 0 h) was 12000000 CFU/mL and 16000000 CFU/mL and 14000000 CFU/mL, the “viable count, time-kill” value ([3]; 8 × MIC, 1 h) was 300 CFU/mL and 500 CFU/mL and the “viable count, time-kill” value ([3]; 8 × MIC, 3 h) was 0 CFU/mL. For the same compound, the “viable count, time-kill” value ([3]; 8 × MIC, 6 h) was 0 CFU/mL, the “viable count, time-kill” value ([3]; 8 × MIC, 24 h) was 0 CFU/mL and the “viable count, time-kill” value ([3]; MIC, 0 h) was 12000000 CFU/mL and 16000000 CFU/mL and 14000000 CFU/mL. For the same compound, the “viable count, time-kill” value ([3]; MIC, 1 h) was 270000 CFU/mL and 230000 CFU/mL and 250000 CFU/mL, the “viable count, time-kill” value ([3]; MIC, 3 h) was 23000 CFU/mL and 16000 CFU/mL and 17000 CFU/mL and the “viable count, time-kill” value ([3]; MIC, 6 h) was 3400000 CFU/mL and 2800000 CFU/mL and 3800000 CFU/mL. For the same compound, the “viable count, time-kill” value ([3]; MIC, 24 h) was 1000000000000 CFU/mL and 1200000000000 CFU/mL and 1700000000000 CFU/mL, the Fluorescence intensity ([4]; 2 × MIC, time 0 min) was 1284 and 1283 and 1287 and the Fluorescence intensity ([4]; 2 × MIC, time 5 min) was 3609 and 3355 and 3304. The Fluorescence intensity ([4]; 2 × MIC, time 10 min) was 8683 and 7973 and 7881, the Fluorescence intensity ([4]; 2 × MIC, time 15 min) was 14691 and 13649 and 13959 and the Fluorescence intensity ([4]; 2 × MIC, time 20 min) was 20043 and 18959 and 19659. For the same compound, the Fluorescence intensity ([4]; 2 × MIC, time 25 min) was 24616 and 23653 and 24172, the Fluorescence intensity ([4]; 2 × MIC, time 30 min) was 28652 and 27362 and 28393 and the Fluorescence intensity ([4]; 2 × MIC, time 35 min) was 31775 and 30780 and 31899. For the same compound, the Fluorescence intensity ([4]; 4 × MIC, time 0 min) was 1309 and 1246 and 1149, the Fluorescence intensity ([4]; 4 × MIC, time 5 min) was 36231 and 38899 and 38058 and the Fluorescence intensity ([4]; 4 × MIC, time 10 min) was 55462 and 53189 and 56098. For the same compound, the Fluorescence intensity ([4]; 4 × MIC, time 15 min) was 60865 and 61985 and 61514, the Fluorescence intensity ([4]; 4 × MIC, time 20 min) was 61161 and 60954 and 60896 and the Fluorescence intensity ([4]; 4 × MIC, time 25 min) was 61613 and 62061 and 61850. For the same compound, the Fluorescence intensity ([4]; 4 × MIC, time 30 min) was 62160 and 62706 and 62610, the Fluorescence intensity ([4]; 4 × MIC, time 35 min) was 62714 and 61385 and 61471 and the Fluorescence intensity ([4]; 8 × MIC, time 0 min) was 1294 and 1162 and 1248. The Fluorescence intensity ([4]; 8 × MIC, time 5 min) was 46731 and 44912 and 46760, the Fluorescence intensity ([4]; 8 × MIC, time 10 min) was 54425 and 53299 and 56314 and the Fluorescence intensity ([4]; 8 × MIC, time 15 min) was 62319 and 60472 and 61594. For the same compound, the Fluorescence intensity ([4]; 8 × MIC, time 20 min) was 64747 and 64976 and 65277, the Fluorescence intensity ([4]; 8 × MIC, time 25 min) was 65628 and 65784 and 65550 and the Fluorescence intensity ([4]; 8 × MIC, time 30 min) was 65623 and 66146 and 65510. The Fluorescence intensity ([4]; 8 × MIC, time 35 min) was 66248 and 66493 and 66011, the Fluorescence intensity ([4]; 8 × MIC, time 40 min) was 66880 and the Fluorescence intensity ([4]; MIC, time 0 min) was 1004 and 1023 and 1031. For the same compound, the Fluorescence intensity ([4]; MIC, time 5 min) was 2234 and 2276 and 2181, the Fluorescence intensity ([4]; MIC, time 10 min) was 3718 and 3745 and 3579 and the Fluorescence intensity ([4]; MIC, time 15 min) was 5602 and 5647 and 5393. The Fluorescence intensity ([4]; MIC, time 20 min) was 7978 and 7923 and 7560, the Fluorescence intensity ([4]; MIC, time 25 min) was 10663 and 10527 and 10076 and the Fluorescence intensity ([4]; MIC, time 30 min) was 13390 and 13373 and 12886. The Fluorescence intensity ([4]; MIC, time 35 min) was 16041 and 16009 and 15623, the Fluorescence intensity ([4]; MIC, time 40 min) was 18514 and 18484 and 18179 and the “time to highest SYTOX Green fluorescence intensity” value ([4]; dose-dependent) was no more than 40 min.
